Assay results taken from ChEMBL document CHEMBL1159142, “A convenient degradation of polyoxin D to uracil polyoxin C: access to key intermediates and synthesis of antifungal -aminoacyl derivatives of UPOC” (Bioorg Med Chem Lett, 1993).

These molecules were tested on Candida albicans (assay: Geometric mean minimum inhibitory concentration (GMMIC) for whole cell activity against Candida albicans).
Type: functional

| SMILES | GMMIC [µg/mL] |
| --- | --- |
| NC(=O)OC[C@H](O)[C@@H](O)[C@H](N)C(=O)N[C@H](C(=O)O)[C@H]1O[C@@H](n2cc(C(=O)O)c(=O)[nH]c2=O)[C@H](O)[C@@H]1O | 153 |
| CSCCC(N)C(=O)N[C@H](C(=O)O)[C@H]1O[C@@H](n2ccc(=O)[nH]c2=O)[C@H](O)[C@@H]1O (some centres not stated) | 49 |
| CC[C@@H](O)C(N)C(=O)N[C@H](C(=O)O)[C@H]1O[C@@H](n2ccc(=O)[nH]c2=O)[C@H](O)[C@@H]1O (some centres not stated) | >2048 |
| CC[C@H](C)C(N)C(=O)N[C@H](C(=O)O)[C@H]1O[C@@H](n2ccc(=O)[nH]c2=O)[C@H](O)[C@@H]1O (some centres not stated) | >2048 |
| CC[C@@H](C)C(N)C(=O)N[C@H](C(=O)O)[C@H]1O[C@@H](n2ccc(=O)[nH]c2=O)[C@H](O)[C@@H]1O (some centres not stated) | 44 |
| N[C@@H](CCc1ccc(O)cc1)C(=O)N[C@H](C(=O)O)[C@H]1O[C@@H](n2ccc(=O)[nH]c2=O)[C@H](O)[C@@H]1O | 128 |
| N[C@H](C(=O)N[C@H](C(=O)O)[C@H]1O[C@@H](n2ccc(=O)[nH]c2=O)[C@H](O)[C@@H]1O)c1csc(O)c1 | >2048 |
| N[C@@H](Cc1c[nH]c2ccccc12)C(=O)N[C@H](C(=O)O)[C@H]1O[C@@H](n2ccc(=O)[nH]c2=O)[C@H](O)[C@@H]1O | 2048 |
| N[C@@H](Cc1c[nH]c2ccc(F)cc12)C(=O)N[C@H](C(=O)O)[C@H]1O[C@@H](n2ccc(=O)[nH]c2=O)[C@H](O)[C@@H]1O | >2048 |
| COc1ccc2[nH]cc(C[C@H](N)C(=O)N[C@H](C(=O)O)[C@H]3O[C@@H](n4ccc(=O)[nH]c4=O)[C@H](O)[C@@H]3O)c2c1 | >2048 |
| N[C@@H](CCc1ccc(O)cn1)C(=O)N[C@H](C(=O)O)[C@H]1O[C@@H](n2ccc(=O)[nH]c2=O)[C@H](O)[C@@H]1O | 118 |
| NCC(=O)N[C@H](C(=O)O)[C@H]1O[C@@H](n2ccc(=O)[nH]c2=O)[C@H](O)[C@@H]1O | >2048 |
| C[C@H](Cc1ccc(O)cn1)[C@H](N)C(=O)N[C@H](C(=O)O)[C@H]1O[C@@H](n2ccc(=O)[nH]c2=O)[C@H](O)[C@@H]1O | 9.3 |
| CC(C)[C@H](N)C(=O)N[C@H](C(=O)O)[C@H]1O[C@@H](n2ccc(=O)[nH]c2=O)[C@H](O)[C@@H]1O | 87 |
| C[C@H](Cc1ccc(O)cc1)[C@H](N)C(=O)N[C@H](C(=O)O)[C@H]1O[C@@H](n2ccc(=O)[nH]c2=O)[C@H](O)[C@@H]1O | 35 |
| C[C@@H](Cc1ccc(O)cn1)[C@H](N)C(=O)N[C@H](C(=O)O)[C@H]1O[C@@H](n2ccc(=O)[nH]c2=O)[C@H](O)[C@@H]1O | 51 |
| C=C[C@@H](C)C(N)C(=O)N[C@H](C(=O)O)[C@H]1O[C@@H](n2ccc(=O)[nH]c2=O)[C@H](O)[C@@H]1O (some centres not stated) | 406 |
| N[C@@H](Cc1c[nH]c2ccc(O)cc12)C(=O)N[C@H](C(=O)O)[C@H]1O[C@@H](n2ccc(=O)[nH]c2=O)[C@H](O)[C@@H]1O | 27 |
| NC(Cc1c[nH]c2ccc(O)cc12)C(=O)NC[C@H]1OC(n2ccc(=O)[nH]c2=O)[C@H](O)[C@@H]1O (some centres not stated) | >2048 |
| NC(Cc1c[nH]c2ccc(O)cc12)C(=O)N[C@H](CO)[C@H]1OC(n2ccc(=O)[nH]c2=O)[C@H](O)[C@@H]1O (some centres not stated) | >2048 |
| N[C@H](C(=O)O)[C@H]1OC(n2ccc(=O)[nH]c2=O)[C@H](O)[C@@H]1O (some centres not stated) | >2048 |
| C[C@@H]([C@H](N)C(=O)N[C@H](C(=O)O)[C@H]1O[C@@H](n2ccc(=O)[nH]c2=O)[C@H](O)[C@@H]1O)[C@H](O)c1ccc(O)cn1 [NIKKOMYCIN] | 6 |
